Experiments:
Recombinant human FAP = biological target: T1, Recombinant human FAP (Homo sapiens, UniProt Q12884); experiment: FAP inhibition, fluorogenic substrate Z-Gly-Pro-AMC; assay type: biochemical; settings: for inhibition at 1 µM: read-out: hFAP inhibition % at 1 μM
T1 construct: purchased R&D systems
T1 sequence (Q12884 1-760): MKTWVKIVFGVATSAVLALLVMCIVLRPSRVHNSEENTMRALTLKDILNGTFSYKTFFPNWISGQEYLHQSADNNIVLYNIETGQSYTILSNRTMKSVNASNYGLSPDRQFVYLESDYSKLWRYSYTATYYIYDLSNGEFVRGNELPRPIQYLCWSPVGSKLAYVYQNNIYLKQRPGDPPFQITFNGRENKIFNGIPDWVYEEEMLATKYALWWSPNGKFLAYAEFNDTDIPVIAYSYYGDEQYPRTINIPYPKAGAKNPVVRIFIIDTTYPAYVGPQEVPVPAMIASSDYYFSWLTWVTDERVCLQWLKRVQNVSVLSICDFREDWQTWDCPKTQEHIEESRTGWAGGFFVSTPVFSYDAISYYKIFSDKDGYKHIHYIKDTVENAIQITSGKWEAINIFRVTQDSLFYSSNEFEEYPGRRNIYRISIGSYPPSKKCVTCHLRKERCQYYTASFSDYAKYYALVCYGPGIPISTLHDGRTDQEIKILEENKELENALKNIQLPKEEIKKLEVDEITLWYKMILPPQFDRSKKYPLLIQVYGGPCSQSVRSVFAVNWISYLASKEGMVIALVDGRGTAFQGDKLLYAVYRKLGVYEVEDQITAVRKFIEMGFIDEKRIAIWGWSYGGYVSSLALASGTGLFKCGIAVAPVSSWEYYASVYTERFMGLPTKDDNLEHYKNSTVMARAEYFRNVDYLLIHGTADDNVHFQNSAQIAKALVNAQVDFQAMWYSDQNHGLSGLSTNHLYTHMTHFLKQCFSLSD
Experimental: The compounds according to the present technology were evaluated in terms of the inhibitory effect on the activity of dipeptidyl peptidases including FAP by using a substrate producing fluorescent substances upon enzymatic decomposition. The test was conducted at 25° C. to get a final reaction volume of 100 μL in a 96 black well plate. […] Briefly, the test compounds were dissolved in dimethyl sulfoxide (DMSO) at a concentration of 20 mM and then subjected to serial dilution, thereby creating an 8 point curve. As for the control group, a 6 point curve created by serial dilution of Talabostat in the same buffer solution was used. Fluorescence intensity was measured using a microplate reader (Flexstation3, Molecular Devices) under the wavelength condition exciting at 380 nm and reading the emission at 460 nm. The inhibitory effect of the test compounds was measured as a decrease (%) in the signal rate as compared to the control group without any inhibitor. Data was fixed to a logistic model with four variables and IC50 value was calculated using GraphPad Prism program. Recombinant human FAP (R&D systems) was diluted with 50 mM tris (pH 7.5) buffer comprising 1 M of sodium chloride and 1 mg/ml of bovine serum albumin (BSA) to be 10 ng per final reaction. The test compounds were subjected to serial dilution in a buffer under the condition containing up to 0.1% of DMSO. Z-Gly-Pro-AMC (Bachem) was used as a substrate. By dissolving in DMSO and then diluting in the same buffer, the substrate was added to be […] per final reaction.

DPP4 = DPP4 (Homo sapiens, UniProt P27487); experiment: DPP4 inhibition, fluorogenic substrate H-Gly-Pro-AMC; assay type: biochemical; parameters: purchased R&D Systems; settings: for inhibition at 1 µM: read-out: hDPP4 inhibition % at 1 μM
Experimental: The compounds according to the present technology were evaluated in terms of the inhibitory effect on the activity of dipeptidyl peptidases including FAP by using a substrate producing fluorescent substances upon enzymatic decomposition. The test was conducted at 25° C. to get a final reaction volume of 100 μL in a 96 black well plate. […] Briefly, the test compounds were dissolved in dimethyl sulfoxide (DMSO) at a concentration of 20 mM and then subjected to serial dilution, thereby creating an 8 point curve. As for the control group, a 6 point curve created by serial dilution of Talabostat in the same buffer solution was used. Fluorescence intensity was measured using a microplate reader (Flexstation3, Molecular Devices) under the wavelength condition exciting at 380 nm and reading the emission at 460 nm. The inhibitory effect of the test compounds was measured as a decrease (%) in the signal rate as compared to the control group without any inhibitor. Data was fixed to a logistic model with four variables and IC50 value was calculated using GraphPad Prism program. As for recombinant human DPP4 (R&D Systems), 25 mM tris (pH 8.0) buffer as a buffer solution and H-Gly-Pro-AMC (Bachem) as a substrate were used. As for recombinant human DPP7 (R&D Systems), 25 mM MES (pH 6.0) buffer as a buffer solution and Lys-Pro-AMC (Bachem) as a substrate were used. As for recombinant human DPP8 (PBS Bioscience), as a buffer solution, a 10 mM tris (pH 7.4) buffer comprising 10 mM of magnesium chloride and 0.05% of Tween 20, and Z-Ala-Pro-AMC (BPS Bioscience) as a substrate were used. As for recombinant human DPP9 (R&D Systems), a 25 mM tris (pH 8.0) buffer as a buffer solution and H-Gly-Pro-AMC (Bachem) as a substrate were used. As for recombinant human PREP (R&D System), as a buffer solution, a 25 mM tris (pH 7.5) buffer comprising 250 mM sodium chloride and 2.5 mM DTT (Dithiolthreitol), and Z-Gly-Pro-AMC (Bachem) as a substrate were used. The evaluation was made by using 10 ng of DPP4, PDD7, and PREP, 20 ng of DPP8, and 50 ng of DPP9 based on the final reaction. In the evaluation of DPP4, the test compounds were subjected to serial dilution in a buffer under the condition containing up to 0.1% of DMSO. In the evaluation of DPP7, DPP8, DPP9, and PREP, the test compounds were subjected to serial dilution in each buffer under the condition containing up to 0.5% of DMSO.

[1] = recombinant human FAP, substrate Z-Gly-Pro-AMC
[2] = 25° C., Z-Gly-Pro-AMC substrate

DPP4, sequence (P27487 whole entry): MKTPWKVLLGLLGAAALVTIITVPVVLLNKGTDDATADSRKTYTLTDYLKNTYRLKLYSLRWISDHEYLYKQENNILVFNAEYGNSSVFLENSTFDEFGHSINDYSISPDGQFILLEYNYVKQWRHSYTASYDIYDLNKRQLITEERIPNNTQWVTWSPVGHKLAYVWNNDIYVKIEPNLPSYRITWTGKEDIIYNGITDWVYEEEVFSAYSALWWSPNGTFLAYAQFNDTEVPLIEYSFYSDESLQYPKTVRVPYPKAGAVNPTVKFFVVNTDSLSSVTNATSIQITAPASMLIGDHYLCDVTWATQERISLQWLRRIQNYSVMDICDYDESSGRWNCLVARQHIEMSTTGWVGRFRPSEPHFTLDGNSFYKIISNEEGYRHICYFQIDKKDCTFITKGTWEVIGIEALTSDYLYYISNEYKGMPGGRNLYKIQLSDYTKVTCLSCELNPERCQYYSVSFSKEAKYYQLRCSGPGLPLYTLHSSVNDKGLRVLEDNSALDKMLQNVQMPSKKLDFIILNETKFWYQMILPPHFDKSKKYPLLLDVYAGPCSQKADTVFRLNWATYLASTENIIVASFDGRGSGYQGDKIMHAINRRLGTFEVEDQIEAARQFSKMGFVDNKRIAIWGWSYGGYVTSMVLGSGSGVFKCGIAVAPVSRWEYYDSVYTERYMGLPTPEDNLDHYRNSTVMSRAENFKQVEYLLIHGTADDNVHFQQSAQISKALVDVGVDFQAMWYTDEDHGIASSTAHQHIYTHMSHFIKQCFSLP

SMILES | inhibition at 1 µM (Recombinant human FAP) [%] | inhibition at 1 µM (DPP4) [%] | hDPP4 inhibition % at 1 μM (DPP4) | IC50 (Recombinant human FAP; [2]) [nM] | other results
N#C[C@@H]1CCCN1C(=O)CN1CC[C@H](NC(=O)c2ccccc2-c2ccccc2)C1 [Example 39, N—((S)-1-(2-((S)-2-cyanopyrrolidin-1-yl)-2-oxoethyl)pyrrolidin-3-yl)-[1,1′-biphenyl]-2-carboxamide] | 68.1 | 0.4 |  |  | 
N#C[C@@H]1CCCN1C(=O)CN1CC[C@H](Oc2ccc3c(c2)OCO3)C1 [Example 67, (S)-1-(2-((S)-3-(benzo[d][1,3]dioxol-5-yloxy)pyrrolidin-1-yl)acetyl)pyrrolidine-2-carbonitrile] | 64 |  | No inhibition** |  | 
N#Cc1ccc2c(NC3CCN(CC(=O)N4C[C@@H](F)C[C@H]4C#N)CC3)cccc2n1 [Example 335, 5-[[1-[2-oxo-2-[(2S,4S)-2-cyano-4-fluoro-pyrrolidin-1-yl]ethyl]-4-piperidyl]amino]quinoline-2-carbonitrile] |  |  |  |  | IC50 (Recombinant human FAP; [1]): 5.9 nM; IC50 (DPP4; recombinant human DPP4): 7330 nM
N#C[C@@H]1CCCN1C(=O)CN1CC[C@H](C(=O)Nc2cnc3ccccc3c2)C1 [Example 3, (S)-1-(2-((S)-2-cyanopyrrolidin-1-yl)-2-oxoethyl)-N-(quinolin-3-yl)pyrrolidine-3-carboxamide] |  | 4.2 |  | 175 | 
N#C[C@@H]1CCCN1C(=O)CN1CC[C@H](Nc2cccc3ccoc23)C1 [Example 22, (S)-1-(2-((S)-3-(benzofuran-7-ylamino)pyrrolidin-1-yl)acetyl)pyrrolidine-2-carbonitrile] |  | 4.2 |  | 9.03 | 
N#C[C@@H]1CCCN1C(=O)CN1CCC(Oc2cnc3ccccc3c2)CC1 [Example 117, (S)-1-(2-(4-(quinolin-3-yloxy)piperidin-1-yl)acetyl)pyrrolidine-2-carbonitrile] |  |  | No inhibition** | 22.9 | 
N#C[C@@H]1CCCN1C(=O)CN1CC[C@H](NS(=O)(=O)c2cc3ccccc3s2)C1 [Example 60, N—((S)-1-(2-((S)-2-cyanopyrrolidin-1-yl)-2-oxoethyl)pyrrolidin-3-yl)benzo[b]thiophene-2-sulfonamide] | 44.2 |  | No inhibition** |  | 
N#C[C@@H]1CCCN1C(=O)CN1CCC(Nc2cncc3ccoc23)CC1 [Example 116, (S)-1-(2-(4-(furo[3,2-c]pyridin-7-ylamino)piperidin-1-yl)acetyl)pyrrolidine-2-carbonitrile] | 82.4 |  | No inhibition** |  | 
N#C[C@@H]1CCCN1C(=O)CN1CC[C@H](Oc2ccc3c(c2)CCC(=O)N3)C1 [Example 77, (S)-1-(2-((S)-3-((2-oxo-1,2,3,4-tetrahydroquinolin-6-yl)oxy)pyrrolidin-1-yl)acetyl)pyrrolidine-2-carbonitrile] |  | 0.4 |  | 82.3 | 
N#C[C@@H]1CCCN1C(=O)CN1CC[C@H](Oc2cccc(-c3ccccc3)c2)C1 [Example 82, (S)-1-(2-((S)-3-([1,1′-biphenyl]-3-yloxy)pyrrolidin-1-yl)acetyl)pyrrolidine-2-carbonitrile] | 72.6 | 6.5 |  |  | 
Cc1ccc2ncccc2c1NC1CCN(CC(=O)N2C[C@@H](F)C[C@H]2C#N)CC1 [Example 134, (2S,4S)-4-fluoro-1-(2-(4-((6-methylquinolin-5-yl)amino)piperidin-1-yl)acetyl)pyrrolidine-2-carbonitrile] |  |  |  | 343 | IC50 (DPP4; 25° C., H-Gly-Pro-AMC substrate): 8010 nM
COc1ccc2ncccc2c1N[C@H]1CCN(CC(=O)N2CCC[C@H]2C#N)C1 [Example 240, (2S)-1-[2-[(3S)-3-[(6-methoxy-5-quinolyl)amino]pyrrolidin-1-yl]acetyl]pyrrolidine-2-carbonitrile] |  |  |  |  | IC50 (Recombinant human FAP; [1]): 20 nM; IC50 (DPP4; recombinant human DPP4): > 10000 nM
N#C[C@@H]1CCCN1C(=O)CN1CC[C@H](Oc2ccc(Cc3ccccc3)cc2)C1 [Example 89, (S)-1-(2-((S)-3-(4-benzylphenoxy)pyrrolidin-1-yl)acetyl)pyrrolidine-2-carbonitrile] | 56.8 | 7.9 |  |  | 
N#C[C@@H]1CCCN1C(=O)CN1CC[C@H](Oc2cc3ccccc3cn2)C1 [Example 69, (S)-1-(2-((S)-3-(isoquinolin-3-yloxy)pyrrolidin-1-yl)acetyl)pyrrolidine-2-carbonitrile] |  | 8 |  | 64.3 | 
N#C[C@@H]1CCCN1C(=O)CN1CC[C@H](Oc2cc(OCc3ccccc3)ccn2)C1 [Example 93, (S)-1-(2-((S)-3-((4-(benzyloxy)pyridin-2-yl)oxy)pyrrolidin-1-yl)acetyl)pyrrolidine-2-carbonitrile] |  | 11.6 |  | 69.6 | 
N#C[C@@H]1CCCN1C(=O)CN1CC[C@H](Oc2ccc(C(=O)c3ccccc3)cc2)C1 [Example 92, (S)-1-(2-((S)-3-(4-benzoylphenoxy)pyrrolidin-1-yl)acetyl)pyrrolidine-2-carbonitrile] | 56.4 | 10.2 |  |  | 
N#C[C@@H]1CCCN1C(=O)CN1CC[C@@H](Nc2cccc(-c3ccccc3)c2)C1 [Example 18, (S)-1-(2-((R)-3-([1,1′-biphenyl]-3-ylamino)pyrrolidin-1-yl)acetyl)pyrrolidine-2-carbonitrile] |  |  | No inhibition** | 25.3 | 
N#C[C@@H]1CCCN1C(=O)CN1CC[C@H](Oc2ccnc3cc(Cl)ccc23)C1 [Example 79, (S)-1-(2-((S)-3-((7-chloroquinolin-4-yl)oxy)pyrrolidin-1-yl)acetyl)pyrrolidine-2-carbonitrile] |  | 4.6 |  | 17.9 | 
N#C[C@@H]1CCCN1C(=O)CN1CC[C@H](NS(=O)(=O)c2cc3ccccc3o2)C1 [Example 59, N—((S)-1-(2-((S)-2-cyanopyrrolidin-1-yl)-2-oxoethyl)pyrrolidin-3-yl)benzofuran-2-sulfonamide] | 33.4 |  | No inhibition** |  | 
N#C[C@@H]1CCCN1C(=O)CN1CC[C@H](Oc2ccnc3cc(Br)ccc23)C1 [Example 80, (S)-1-(2-((S)-3-((7-bromoquinolin-4-yl)oxy)pyrrolidin-1-yl)acetyl)pyrrolidine-2-carbonitrile] |  | 5.1 |  | 20.5 | 
